Laboratory results from US20160082015A1, “METHODS, COMPOSITIONS AND KITS FOR PROMOTING MOTOR NEURON SURVIVAL AND TREATING AND DIAGNOSING NEURODEGENERATIVE DISORDERS” (PRESIDENT AND FELLOWS OF HARVARD COLLEGE, priority 2013, published 2016).

System: HGK-Tak1-MKK4-JNK-c-Jun cell death signaling cascade
Experiment: JNK/c-Jun signaling pathway analysis by immunostaining
Format: cell-based, mouse
Conditions: trophic factor withdrawal
Procedure: For JNK/c-Jun signaling pathway analysis, freshly dissociated SOD1G93A/HB9::GFP and HB9::GFP EBs were plated at a density of 30,000 GFP+ cells/well in 96-well plates and trophic factor withdrawal/compound addition was performed on day 4. Cells were fixed at 1, 6, 24 and 48 h after treatment, stained with appropriate antibodies, and imaged using an automated microscope (Perkin Elmer Operetta) at 20× magnification. GFP+ MNs were identified using Columbus analysis software (Perkin Elmer). Nuclear and cytoplasmic compartments were defined using Hoechst and GFP. Mean intensity of fluorescent staining across nuclear or cytoplasmic compartments was measured for each MN. Intensities were corrected for background staining levels (secondary antibody only) and the number of positive MNs per condition quantified.

Structure (SMILES): O=C1Cc2c([nH]c3ccc(Br)cc23)-c2ccccc2N1 [Kenpaullone]
- MKK4 phosphorylation: suppressed
- proportion of MNs immunopositive for phospho-Tak1: significantly reduced
- percent of MNs positive for phospho-JNK (early time points): decreased
- percent of MNs positive for phospho-cJun (early time points): decreased
